Source: patent US9815851B2, “Pyrrolo carboxamides as modulators of orphan nuclear receptor RAR-related orphan receptor-gamma (RORγ, NR1F3) activity and for the treatment of chronic inflammatory and autoimmune diseases” (PHENEX PHARMACEUTICALS AG, priority 2011, dated 2017)
Like-named read-outs stand apart in the source and are kept apart here.

Experiments:
[1] = molecular target: T1, RORγ ligand binding domain (LBD) (Homo sapiens, UniProt P51449); test: TR-FRET Activity Assay (ligand sensing, RORγ-LBD / coactivator peptide interaction, LANCE); type: biochemical
T1 construct: made in house; host or cells: E. coli BL-21 (BL3), vector pDEST15
T1 sequence (P51449 269-508 limits assumed): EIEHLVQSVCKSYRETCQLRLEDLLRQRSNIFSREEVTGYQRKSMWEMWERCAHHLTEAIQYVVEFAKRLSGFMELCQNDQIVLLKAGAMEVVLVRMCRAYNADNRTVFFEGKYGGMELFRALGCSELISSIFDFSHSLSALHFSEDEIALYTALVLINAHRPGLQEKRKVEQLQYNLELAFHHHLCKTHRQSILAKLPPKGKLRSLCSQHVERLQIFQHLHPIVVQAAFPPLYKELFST

[2] = molecular target: T2, RORγ (UniProt P51449); test: RORγ Gal4 Reporter Gene Assay in 293T cells (firefly and renilla luciferase); type: cell-based, human
T2 sequence (P51449 1-518): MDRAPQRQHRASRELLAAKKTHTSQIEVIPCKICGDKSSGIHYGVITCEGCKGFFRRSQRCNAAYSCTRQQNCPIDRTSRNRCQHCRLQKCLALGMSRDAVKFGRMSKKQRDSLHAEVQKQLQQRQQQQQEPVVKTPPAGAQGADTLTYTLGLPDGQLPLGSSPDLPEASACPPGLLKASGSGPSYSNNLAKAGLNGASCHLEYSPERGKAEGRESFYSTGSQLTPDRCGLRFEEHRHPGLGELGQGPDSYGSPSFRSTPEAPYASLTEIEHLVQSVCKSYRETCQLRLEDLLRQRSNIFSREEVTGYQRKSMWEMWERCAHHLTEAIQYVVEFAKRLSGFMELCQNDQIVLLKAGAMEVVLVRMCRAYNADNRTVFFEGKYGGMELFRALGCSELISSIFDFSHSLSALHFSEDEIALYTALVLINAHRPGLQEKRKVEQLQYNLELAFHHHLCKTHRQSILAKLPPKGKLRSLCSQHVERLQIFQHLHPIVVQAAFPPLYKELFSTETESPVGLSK

[3] = first value of the cell FRET/FF/REN, TR-FRET activity assay, read-out: pIC50 (FRET) (converted)
[4] = second value of the cell, Gal4 reporter gene assay in 293T cells, firefly luciferase
[5] = third value of the cell, Gal4 reporter gene assay in 293T cells, renilla normalised luciferase

Compound	IC50 [1, 3] [nM]	pIC50 (FF) [2, 4]	pIC50 (REN) [2, 5]	IC50 [1] [nM]	pIC50 (FF) [2]	pIC50 (REN) [2]
Cc1c(C(=O)NCCC(C)(C)C(=O)O)cc(-c2ccc(S(=O)(=O)NC(C)(C)C)c3ccccc23)n1CC1CCCCC1 [17/241]	1260	7.7	7.8	–	–	–
Cc1c(C(=O)NC2CCOCC2)cc(-c2ccc(S(=O)(=O)NC(C)(C)C)c3ccccc23)n1CC1CCC1 [17/242]	398	7.5	7.6	–	–	–
Cc1c(C(=O)NCC2(O)CCOCC2)cc(-c2ccc(S(=O)(=O)NC(C)(C)C)c3ccccc23)n1CC1CCC1 [17/243]	631	7.4	7.6	–	–	–
Cc1c(C(=O)NCC2CC(C(=O)O)C2)cc(-c2cc(C(C)(C)O)cc(C3(C)CC3)c2)n1CC1CCCCC1 (stereo not drawn) [17/246]	3980	6.1	6.2	–	–	–
Cc1c(C(=O)NC2CCOCC2)cc(-c2ccc(NS(=O)(=O)C(C)(C)C)c(C(F)(F)F)c2)n1CC1CCCCC1 [17/247]	1260	6.9	7.0	–	–	–
Cc1c(C(=O)NC2CCOCC2)cc(-c2ccc(-c3ccnn3C(C)C)c(C(F)(F)F)c2)n1CC1CCCCC1 [17/249]	501	6.6	6.7	–	–	–
Cc1c(C(=O)NCCC(C)(C)C(=O)O)cc(-c2ccc(-c3ccnn3C(C)C)c(C(F)(F)F)c2)n1CC1CCCCC1 [17/250]	1580	6.6	6.5	–	–	–
Cc1c(C(=O)NC2CCOCC2)cc(-c2ccc(-c3nnc(C(C)(C)C)o3)c(C(C)(C)C)c2)n1CC1CCCCC1 [17/251]	–	–	–	501	6.3/6.9/6.9	6.3/6.9/6.9
Cc1c(C(=O)N[C@H]2C[C@H](C(=O)O)C2)cc(-c2ccc(-c3nnc(C(C)(C)C)o3)c(C(C)(C)C)c2)n1CC1CCCCC1 [17/252]	1580	6.5	6.6	–	–	–
Cc1c(C(=O)NC2CCOCC2)cc(-c2ccc(S(=O)(=O)NC(C)(C)C)c(C(F)(F)F)c2)n1CC1CCC(F)CC1 (stereo not drawn) [17/257]	–	–	–	501	6.3/7.4/7.6	6.3/7.4/7.6
Cc1c(C(=O)N[C@H]2C[C@H](C(=O)O)C2)cc(-c2cc(C(C)(C)C)nc(C(C)(C)C)c2)n1CC1CCCCC1 [17/262]	–	–	–	631	6.2/7.6/7.8	6.2/7.6/7.8
Cc1c(C(=O)NC2CCS(=O)(=O)CC2)cc(-c2ccc(S(=O)(=O)NC(C)(C)C)c3ccccc23)n1CC1CCCCC1 [17/263]	316	7.9	8.0	–	–	–
Cc1c(C(=O)NCC(C)(C)O)cc(-c2ccc(S(=O)(=O)NC(C)(C)C)c3ccccc23)n1CC1CCCCC1 [17/264]	631	7.9	7.7	–	–	–
Cc1c(C(=O)NCC2CCS(=O)(=O)CC2)cc(-c2ccc(S(=O)(=O)NC(C)(C)C)c3ccccc23)n1CC1CCCCC1 [17/265]	316	7.9	8.0	–	–	–
Cc1c(C(=O)N2CC3(CCOCC3)C2)cc(-c2ccc(S(=O)(=O)NC(C)(C)C)c3ccccc23)n1CC1CCCCC1 [17/266]	251	8.3	8.5	–	–	–
Cc1c(C(=O)NCC2(C(N)=O)CCOCC2)cc(-c2ccc(S(=O)(=O)NC(C)(C)C)c3ccccc23)n1CC1CCCCC1 [17/267]	794	7.9	8.0	–	–	–
Cc1c(C(=O)NCC2(O)CCS(=O)(=O)CC2)cc(-c2ccc(S(=O)(=O)NC(C)(C)C)c3ccccc23)n1CC1CCCCC1 [17/268]	794	7.7	7.8	–	–	–
Cc1c(C(=O)NCCN2CCOCC2)cc(-c2ccc(S(=O)(=O)NC(C)(C)C)c3ccccc23)n1CC1CCCCC1 [17/269]	–	–	–	1000	6.0/6.9/7.0	6.0/6.9/7.0
Cc1c(C(=O)N2CC3(CCS(=O)(=O)CC3)C2)cc(-c2ccc(S(=O)(=O)NC(C)(C)C)c3ccccc23)n1CC1CCCCC1 [17/270]	631	7.8	8.0	–	–	–
Cc1c(C(=O)N[C@H]2C[C@H](C(=O)O)C2)cc(-c2ccc(S(=O)(=O)NCC(F)(F)F)c3ccccc23)n1CC1CCCCC1 [17/271]	794	7.1	7.1	–	–	–
Cc1c(-c2cc(C(=O)NC3CCOCC3)c(C)n2CC2CCCCC2)ccc(S(=O)(=O)NC(C)(C)C)c1C [17/273]	1580	7.2	7.3	–	–	–
Cc1c(C(=O)NC2CCOCC2)cc(-c2ccc(S(=O)(=O)NC(C)(C)C)c(Cl)c2Cl)n1CC1CCCCC1 [17/276]	–	–	–	158	6.8/7.9/8.0	6.8/7.9/8.0

More lines, main results first:

IC50 [1, 3] [nM]	pIC50 (FF) [2, 4]	pIC50 (REN) [2, 5]	Compound	IC50 [1] [nM]	pIC50 (FF) [2]	pIC50 (REN) [2]
794	7.5	7.6	Cc1c(C(=O)N[C@H]2C[C@H](C(=O)O)C2)cc(-c2ccc(S(=O)(=O)NC(C)(C)C)c3ccccc23)n1CC1CCCCC1 [17/240]	–	–	–
> 20000	5.7	5.7	Cc1c(C(=O)NC2CCOCC2)cc(-c2ccc(S(=O)(=O)NC(C)(C)C)c(C(F)(F)F)n2)n1CC1CCCCC1 [17/245]	–	–	–
2510	6.4	7.3	Cc1c(C(=O)NC2CCOCC2)cc(-c2cc(F)c(NS(=O)(=O)C(C)(C)C)c(C(F)(F)F)c2)n1CC1CCCCC1 [17/248]	–	–	–
631	7.0	7.2	Cc1c(C(=O)NC2CCOCC2)cc(-c2ccc(S(=O)(=O)NC(C)(C)C)c(C(F)(F)F)c2)n1[C@@H](C)C1CCCCC1 [17/253]	–	–	–
631	6.6	6.6	Cc1c(C(=O)NC2CCOCC2)cc(-c2ccc(S(=O)(=O)NC(C)(C)C)c(C(F)(F)F)c2)n1[C@H](C)C1CCCCC1 [17/254]	–	–	–
7940	< 4.7	< 4.7	Cc1c(C(=O)NC2CCOCC2)cc(-c2ccc(S(=O)(=O)NC(C)(C)C)c(C(F)(F)F)c2)n1CC1(O)CCCCC1 [17/255]	–	–	–
631	6.8	7.0	Cc1c(C(=O)NC2CCOCC2)cc(-c2ccc(S(=O)(=O)NC(C)(C)C)c(C(F)(F)F)c2)n1CC1CCC(F)(F)CC1 [17/256]	–	–	–
7940	< 4.7	< 4.7	Cc1c(C(=O)NC2CCOCC2)cc(-c2ccc(S(=O)(=O)NC(=O)C(C)(C)C)c(C(F)(F)F)c2)n1CC1CCCCC1 [17/258]	–	–	–
1000	7.2	7.2	Cc1c(C(=O)NC2CCC(C)(C(=O)O)CC2)cc(-c2ccc(S(=O)(=O)NC(C)(C)C)c(C(F)(F)F)c2)n1CC1CCCCC1 (stereo not drawn) [17/259]	–	–	–
501	6.8	6.9	Cc1c(-c2cc(C(=O)N[C@H]3C[C@H](C(=O)O)C3)c(C)n2CC2CCCCC2)ccc(S(=O)(=O)NC(C)(C)C)c1C [17/272]	–	–	–
251	7.9	7.9	Cc1c(S(=O)(=O)NC(C)(C)C)ccc(-c2cc(C(=O)NC3CCOCC3)c(C)n2CC2CCCCC2)c1Cl [17/274]	–	–	–
631	7.0	7.0	Cc1c(S(=O)(=O)NC(C)(C)C)ccc(-c2cc(C(=O)N[C@H]3C[C@H](C(=O)O)C3)c(C)n2CC2CCCCC2)c1Cl [17/275]	–	–	–
